Assay [1] has as its system Hras5 tumours (NIH 3T3 fibroblasts transfected with Harvey ras, clone 5). Put plainly: Hras5 necrosis model. Format: in vivo, nude mice. The conditions noted are these: single dose, culled 24 hours after dosing. The method, then: NIH 3T3 fibroblasts transfected with Harvey ras, clone 5, (Hras5 cells) were kept in continual passage in Dulbecco's modifed Eagles medium (DMEM) containing 10% foetal bovine serum (FBS) and 1% glutamine, at 37° C. in a humidified incubator gassed with 7.5% carbon dioxide and […]. Cells were implanted subcutaneously into the left flank of male nude mice (8-10 weeks of age) at an inoculum of 2×10^5 cells/mouse. Tumours were measured using calipers and randomised into groups of 2-4 mice between days 9-14 after implant. Mice were dosed with compounds, either intravenously or intraperitoneally, once on day of randomisation and culled 24 hours after dosing. Compounds were dissolved in 20% hydroxypropyl beta cyclodextrin in physiological saline at pH 7 and dosed in a volume of 0.1 ml per 10 g body weight. Tumours were excised, weighed and placed in buffered formalin. Area of necrosis in individual tumours was assessed from a haematoxylin/eosin stained-slide by a pathologist and scored from 0, meaning no significant change, to 10, meaning 91-100% necrosis. The activity of examples 5 and 7 (described hereinafter) against tumour vasculature was measured by the fluorescent dye method described hereinabove. Example 1 scored 6.0 at 100 m/kg and example 4 scored 3.2 at 50 m/kg.

The next assay relates to tubulin. The settings on record: O. Boye et al Med. Chem. Res., 1991, 1, 142-150; read-out: IC50 in a tubulin polymerisation assay; cited from earlier work.
Assay [2] relates to tumour vasculature of CaNT tumours. Put plainly: Activity against tumour vasculature measured by fluorescent dye (Hoechst 33342). Format: in vivo. The conditions noted are these: CaNT tumour-bearing mice, 50 mg/kg intraperitoneally, dye 24 hours after drug treatment. How it is done: (b) Activity Against Tumour Vasculature Measured by Fluorescent Dye
Tumour functional vascular volume in CaNT tumour-bearing mice was measured using the fluorescent dye Hoechst 33342 according to the method of Smith et al (Brit. Jnl. Cancer 1988, 57, 247-253). Five animals were used in control and treated groups. The fluorescent dye was dissolved in saline at 6.25 mg/ml and injected intravenously at 10 mg/kg 24 hours after intraperitoneal drug treatment. One minute later, animals were killed and tumours excised and frozen; 10 μm sections were cut at 3 different levels and observed under UV illumination using an Olympus microscope equipped with epifluorescence. Blood vessels were identified by their fluorescent outlines and vascular volume was quantified using a point scoring system based on that described by Chalkley, (Jnl. Natl. Cancer Inst., 1943, 4, 47-53). All estimates were based on counting a minimum of 100 fields from sections cut at the 3 different levels.

Usually IC50 stands for the concentration at which inhibition is half-maximal.

Turning to `COc1ccc2c(c1)[C@@H](NC(=O)CNC(=O)CN)CCc1cc(OC)c(OC)c(OC)c1-2` [Example 1, N-[(5S)-3,9,10,11-Tetramethoxy-6,7-dihydro-5H-dibenzo[a,c]cyclohepten-5-yl]-2-[2-aminoacetylamino]acetamide], in assay [1] (100 m/kg), the “necrosis score (0 = no significant change, 10 = 91-100% necrosis)” value amounted to 6.0.
`COc1cc2c(c(OC)c1OC)-c1ccc(N)cc1C(NC(C)=O)CC2` (stereo not shown) [N-[3-amino-9,10,11-trimethoxy-6,7-dihydro-5H-dibenzo[a,c]cyclohepten-5-yl]acetamide]: the IC50 in the assay with tubulin was 58 µM. In assay [2], the “decrease of perfused vascular volume relative to control” value worked out at 88%.
On to `COc1ccc2c(c1)[C@@H](NC(=O)OCCOP(=O)([O-])[O-])CCc1cc(OC)c(OC)c(OC)c1-2.[Na+].[Na+]` [Example 4, 2-{N-[(5S)-3,9,10,11-tetramethoxy-6,7-dihydro-5H-dibenzo[a,c]cyclohepten-5-yl]carbamoyloxy}ethyl disodium phosphate], for which the “necrosis score (0 = no significant change, 10 = 91-100% necrosis)” value in assay [1] (50 m/kg) was found to be 3.2.

These data come from patent US6846925B2, “Colchinol derivatives as angiogenesis inhibitors” (Angiogene Pharmaceuticals Limited, priority 2000, dated 2005).
